One data set relates to HL-60. The data set is described as follows: HL-60 differentiation potency. It is filed as cell-based. Conditions: Homo sapiens.
Another data set is described as follows: in vitro. The conditions noted are these: human.

Broadly, the EC50 is the midpoint of the concentration-response curve. A lower EC50 goes with a more potent agent. A word on the IC50: it is the midpoint of a concentration-inhibition curve. High values mean a need for much substance, low ones inhibition by little substance. `C[C@H]1[C@@H](Oc2ccc(OC3CCC(C(=O)O)C3)cc2)O[C@@H]2O[C@@]3(C)CC[C@H]4[C@H](C)CC[C@@H]1[C@@]24OO3` (stereo partly drawn) [Compound 227, 3-(4-(((3R,5aS,6R,8aS, 9R,10S,12R, 12aR)-3,6,9-trimethyldeca-hydro-12H-3,12-epoxy[1,2]dioxepino[4,3-i]isochromen-10-yl)oxy)phenoxy) cyclopentane-1-carboxylic acid] showed an EC50 in the data set with HL-60 of 32.9 nM. This compound returned an IC50 in “in vitro” of 700 nM.
On the same counts, the results for `C[C@H]1[C@@H](O[C@H]2CC[C@@H](C(=O)N[C@H]3C[C@@H](C(=O)O)C3)CC2)O[C@@H]2O[C@@]3(C)CC[C@H]4[C@H](C)CC[C@@H]1[C@@]24OO3` [Compound 228, (1S,3s)-3-((1R,4S)-4-(((3R,5aS,6R,8aS, 9R,10S,12R, 12aR)-3,6,9-trimethyldeca-hydro-12H-3,12-epoxy[1,2]dioxepino[4,3-i]isochromen-10-yl)oxy)cyclo-hexane-1-carboxamido) cyclobutane-1-carboxylic acid] are 9200 nM and over 20000 nM.
Compound `C[C@H]1[C@@H](O[C@H]2CC[C@@H](C(=O)N[C@H](C(=O)O)C(C)(C)C)CC2)O[C@@H]2O[C@@]3(C)CC[C@H]4[C@H](C)CC[C@@H]1[C@@]24OO3` [Compound 229, (S)-3,3-dimethyl-2-((1R,4R)-4-(((3R,5aS,6R,8aS, 9R,10S,12R, 12aR)-3,6,9-trimethyldeca-hydro-12H-3,12-epoxy[1,2]dioxepino[4,3-i]isochromen-10-yl)oxy)cyclohexane-1-carboxamido) butanoic acid] had an EC50 in the data set on HL-60 of 204 nM. The IC50 in “in vitro” was over 20000 nM.
Compound `C[C@H]1[C@@H](Oc2ccccc2OCC(=O)O)O[C@@H]2O[C@@]3(C)CC[C@H]4[C@H](C)CC[C@@H]1[C@@]24OO3` [Compound 230, 2-(2-(((3R,5aS,6R,8aS, 9R,10S,12R, 12aR)-3,6,9-trimethyldeca-hydro-12H-3,12-epoxy[1,2]dioxepino[4,3-i]isochromen-10-yl)oxy)phenoxy) acetic acid] yielded an EC50 with HL-60 of 2870 nM. In the data set “in vitro”, this compound returned an IC50 of over 20000 nM.
On the same counts, the results for `C[C@H]1[C@@H](Oc2ccc(C(=O)N[C@H](C(=O)O)C3CCCCC3)cc2)O[C@@H]2O[C@@]3(C)CC[C@H]4[C@H](C)CC[C@@H]1[C@@]24OO3` [Compound 231, (S)-2-cyclohexyl-2-(4-(((3R,5aS,6R,8aS, 9R,10S,12R, 12aR)-3,6,9-trimethyldeca-hydro-12H-3,12-epoxy[1,2]dioxepino[4,3-i]isochromen-10-yl)oxy)benzamido)acetic acid] are 17 nM and 80 nM.
In turn, `C[C@H]1[C@@H](Oc2ccc(C(=O)N[C@H]3CC[C@@H](C(=O)O)C3)cc2Cl)O[C@@H]2O[C@@]3(C)CC[C@H]4[C@H](C)CC[C@@H]1[C@@]24OO3` [Compound 232, (1R,3S)-3-(3-chloro-4-(((3R,5aS,6R,8aS, 9R,10S,12R, 12aR)-3,6,9-trimethyldeca-hydro-12H-3,12-epoxy[1,2]dioxepino[4,3-i]isochromen-10-yl)oxy)benzamido)cyclo-pentane-1-carboxylic acid] showed an EC50 in the data set on HL-60 of 29.9 nM. In “in vitro”, this compound yielded an IC50 of 620 nM.
The compound `C[C@H]1[C@@H](Oc2ccc(C(=O)N[C@H](C(=O)O)c3ccccc3)cc2)O[C@@H]2O[C@@]3(C)CC[C@H]4[C@H](C)CC[C@@H]1[C@@]24OO3` [Compound 234, (S)-2-phenyl-2-(4-(((3R,5aS,6R,8aS, 9R,10S,12R, 12aR)-3,6,9-trimethyldeca-hydro-12H-3,12-epoxy[1,2]dioxepino[4,3-i]isochromen-10-yl)oxy)benzamido) acetic acid] registered an EC50 in the data set on HL-60 of 112 nM. In “in vitro”, this compound showed an IC50 of 1270 nM.
For `C[C@H]1[C@@H](Oc2ccc(C(=O)O)cc2Cl)O[C@@H]2O[C@@]3(C)CC[C@H]4[C@H](C)CC[C@@H]1[C@@]24OO3` [Compound 235, 3-chloro-4-(((3R,5aS,6R,8aS, 9R,10S,12R, 12aR)-3,6,9-trimethyldeca-hydro-12H-3,12-epoxy[1,2]dioxepino[4,3-i]isochromen-10-yl)oxy)benzoic acid] the same measures were 37.5 nM and 15000 nM.
On the same counts, the results for `CC(C)[C@H](NC(=O)c1ccc(O[C@H]2O[C@@H]3O[C@@]4(C)CC[C@H]5[C@H](C)CC[C@@H]([C@H]2C)[C@@]35OO4)cc1)C(=O)O` [Compound 236, (4-(((3R,5aS,6R,8aS, 9R,10S,12R, 12aR)-3,6,9-trimethyldeca-hydro-12H-3,12-epoxy[1,2]dioxepino[4,3-i]isochromen-10-yl)oxy)benzoyl)-L-valine] are 47.4 nM and 9100 nM.
As for `C[C@H]1[C@@H](O[C@H]2CC[C@@H](C(=O)N[C@@H](CC(F)(F)F)C(=O)O)CC2)O[C@@H]2O[C@@]3(C)CC[C@H]4[C@H](C)CC[C@@H]1[C@@]24OO3` [Compound 237, (S)-4,4,4-trifluoro-2-((1R,4R)-4-(((3R,5aS,6R,8aS, 9R,10S,12R, 12aR)-3,6,9-trimethyldeca-hydro-12H-3,12-epoxy[1,2]dioxepino[4,3-i]isochromen-10-yl)oxy)cyclo-hexane-1-carboxamido) butanoic acid], in the data set on HL-60, the EC50 worked out at 7260 nM. Besides, the IC50 in “in vitro” (HL-60 cells) is over 20000 nM.
On to `C[C@H]1[C@@H](Oc2c(F)cc(OCC(=O)O)cc2F)O[C@@H]2O[C@@]3(C)CC[C@H]4[C@H](C)CC[C@@H]1[C@@]24OO3` [Compound 238, 2-(3,5-difluoro-4-(((3R,5aS,6R,8aS, 9R,10S,12R, 12aR)-3,6,9-trimethyldeca-hydro-12H-3,12-epoxy[1,2]dioxepino[4,3-i]isochromen-10-yl)oxy)phenoxy) acetic acid], for which, in the data set on HL-60, the EC50 was 71.3 nM. This compound yielded an IC50 in “in vitro” of 6910 nM.
`C[C@H]1[C@@H](Oc2ccc(CC(=O)N[C@H]3CC[C@@H](C(=O)O)C3)cc2)O[C@@H]2O[C@@]3(C)CC[C@H]4[C@H](C)CC[C@@H]1[C@@]24OO3` [Compound 239, (1R,3S)-3-(2-(4-(((3R,5aS,6R,8aS, 9R,10S,12R, 12aR)-3,6,9-trimethyldeca-hydro-12H-3,12-epoxy[1,2]dioxepino[4,3-i]isochromen-10-yl)oxy)phenyl)acetamido)cyclo-pentane-1-carboxylic acid] gave an EC50 with HL-60 of 21.9 nM. In “in vitro”, this compound gave an IC50 of 16200 nM.
For `C[C@H]1[C@@H](OC[C@H]2CC[C@@H](C(=O)N[C@H]3C[C@@H](C(=O)O)C3)CC2)O[C@@H]2O[C@@]3(C)CC[C@H]4[C@H](C)CC[C@@H]1[C@@]24OO3` [Compound 241, (1S,3s)-3-((1R,4S)-4-((((3R,5aS,6R,8aS, 9R,10S,12R, 12aR)-3,6,9-trimethyldeca-hydro-12H-3,12-epoxy[1,2]dioxepino[4,3-i]isochromen-10-yl)oxy)methyl)cyclohexane-1-carboxamido) cyclobutane-1-carboxylic acid] the same measures were 214 nM and 18800 nM.
As for `C[C@H]1[C@@H](OC[C@H]2CC[C@@H](C(=O)N[C@H](C(=O)O)C(C)(C)C)CC2)O[C@@H]2O[C@@]3(C)CC[C@H]4[C@H](C)CC[C@@H]1[C@@]24OO3` [Compound 242, (S)-3,3-dimethyl-2-((1R,4R)-4-((((3R,5aS,6R,8aS, 9R,10S,12R, 12aR)-3,6,9-trimethyldeca-hydro-12H-3,12-epoxy[1,2]dioxepino[4,3-i]isochromen-10-yl)oxy)methyl)cyclohexane-1-carboxamido) butanoic acid], the EC50 with HL-60 amounted to 21.3 nM. Moreover, the IC50 in the data set “in vitro” was determined as 1270 nM.

For the origin of these results see patent US20260242391A1 (priority 2023, published 2026).
